Source: publication PMC3463587, “A Series of Beta-Carboline Derivatives Inhibit the Kinase Activity of PLKs” (PLoS ONE, 2012)

What was measured:
[1] = system: MRC5 cells; test: FACS cell cycle analysis (PI), MRC5; assay type: cell-based, Human; conditions: 48 hr
Protocol: It is well documented that PLK1 is involved in multiple steps in mitosis, such as centrosome maturation and establishment of bipolar spindle. […] Therefore, the down-regulation of PLK1 would change the distribution of cells in different cell cycle stages. To test this possibility, fluorescence-activated cell sorter (FACS) analysis was used to analyze the DNA content of HeLa cells treated with the identified PLK1 inhibitors, DH281, DH285, and DH287. HeLa cells were first incubated in the absence and presence of these compounds at different concentrations (0, 0.12, 0.48 and 1.92 µM) for 48 hr. […] Treatment with a lower concentration of the compounds (0.12 and 0.48 µM) also led to an obvious increase of the cell population in G2/M phase (Figure 4A, Table 3). Moreover, the proportion of HeLa cells in G2/M phase increased over time after incubation in the presence of 0.8 µM of DH281, DH285 and DH287 (Figure 4B, Table 4). […] We also determined the cell cycle distribution of the non-cancer MRC5 cells after treatment with DH281 at different concentrations. […] It is also possible that inhibition of the kinase activity of the whole PLK family by beta-carboline compounds results in the defect in cell cycle progression.
Tumor cells were exposed to vehicle (0.1% DMSO) or compounds at 0, 0.12, 0.48, and 1.92 µM for 48 hr or 0.8 µM for 24, 48, and 72 hr; MRC5 cells were exposed to compounds at 0, 0.12, 0.48, and 1.92 µM for 48 hr. The floated and attached cells were treated by trypsinization and washed with cold PBS. The cells were then fixed with 70% (v/v) ethanol at 4°C overnight. The fixed cells were washed twice with PBS and incubated with 50 µg/mL RNase A (Sigma, USA) and 50 µg/mL propidium iodide (PI) (Sigma, USA) at 37°C for 30 min.

[2] = biological target: T1, Aurora-A (Homo sapiens, UniProt O14965); test: In vitro kinase assay Aurora A; assay type: biochemical
T1 sequence (O14965 1-403): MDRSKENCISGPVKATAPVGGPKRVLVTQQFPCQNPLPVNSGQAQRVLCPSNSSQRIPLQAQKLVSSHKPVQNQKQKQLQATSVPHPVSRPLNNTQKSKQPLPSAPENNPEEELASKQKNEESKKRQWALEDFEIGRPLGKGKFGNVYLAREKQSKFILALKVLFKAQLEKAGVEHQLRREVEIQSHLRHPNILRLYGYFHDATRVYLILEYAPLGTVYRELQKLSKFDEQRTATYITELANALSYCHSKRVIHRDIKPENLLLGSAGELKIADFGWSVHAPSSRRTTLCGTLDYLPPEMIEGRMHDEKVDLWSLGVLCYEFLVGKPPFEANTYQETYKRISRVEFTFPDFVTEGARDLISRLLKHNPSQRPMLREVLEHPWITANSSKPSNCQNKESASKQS
Protocol: The inhibition of PLK1 kinase activity was assessed using the Cyclex PLK1 Assay/Inhibitor Screening Kit (MBL International Corporation, Japan). The kit includes anti-phospho-threonine polyclonal antibody (PPT-07) and peroxidase coupled anti-rabbit IgG antibody as a reporter in a 96-well ELSIA format. Compounds were used at the concentrations from 10^− ^3 to 10^2 µg/ml and the absorbance was determined at 450 nm. A similar protocol was used to determine the kinase inhibition for PLK2, PLK3, Aurora A and Aurora B. The kinase activity of CDK1/cyclinB and CDK2/cyclinE was analyzed in the presence of serially diluted inhibitors. For each reaction, 20 ng of recombinant kinase was used and […] casein from bovine milk (Sigma) was added as the kinase substrate. The kinase reaction buffer contains 8 mM MOPS pH7.0, 0.2 mM EDTA, 0.1 mg/ml histone H1, 10 mM and MgAcetace and [γ^− ^33P-ATP] (500 cpm/pmol). The reaction was initiated by adding the MgATP mix. After incubation for 40 minutes at room temperature, the reaction was stopped by the addition of 3% phosphoric acid solution. We spotted 10 µl of the reaction mixture onto a P30 filtermat and washed three times for 5 min with 75 mM phosphoric acid and once with methanol prior to drying and scintillation counting.

Cc1c2c(cc[n+]1Cc1ccccc1)c1ccc(OCc3ccc(F)cc3)cc1n2CCCc1ccccc1 [DH281]
cells in G1 ([1]; MRC5, 0.12 µM): 75.3% | cells in G2 (G2/M) ([1]; MRC5, 0.12 µM): 15.5% | cells in S ([1]; MRC5, 0.12 µM): 9.18% | cells in G1 ([1]; MRC5, 0.48 µM): 68.2% | cells in G2 (G2/M) ([1]; MRC5, 0.48 µM): 14.6% | cells in S ([1]; MRC5, 0.48 µM): 17.3. % | cells in G1 ([1]; MRC5, 1.92 µM): 59.3% | cells in S ([1]; MRC5, 1.92 µM): 25.6%

Cc1c2c(cc[n+]1Cc1ccccc1)c1ccc(OCc3ccccc3)cc1n2Cc1ccccc1 [DH287]
IC50 [2]: 22.6 µM
